# According to patent US20230227511A1, “THERAPEUTIC OR […] FOR INFECTIOUS DISEASE” (NIPPON MEDICAL SCHOOL FOUNDATION, priority 2020, published 2023):
# Experiments:
# [1] = system: sepsis mouse models; experiment: Administration of the 50-amino acid peptide (PTX3N50) to sepsis mouse models; format: in vivo; conditions: peptide not fused to Fc
# [2] = system: vascular endothelial cells; conditions: Patent Document 1; cited from earlier work
substance,measurement,setting,value
"PTX3N50: 50-amino acid peptide on the N-terminal side of PTX3, not fused to Fc (ENSDDYDLMYVNLDNEIDNGLHPTEDPTPCACGQEHSEWDKLFIMLENSQ; UniProt P26022 18-67, looked up, fragment)",survival percentage of the sepsis mouse models,[1],could not improve the survival percentage
same,action to suppress histone cytotoxicity against vascular endothelial cells,[2],has an action to suppress histone cytotoxicity
